Results reported in PMC3229523, “Identification of Lactoferricin B Intracellular Targets Using an Escherichia coli Proteome Chip” (PLoS ONE, 2011).
Ends that are not written are not given here. * marks the point of attachment. Biotin = O=C1N[C@H]2[C@H](CS[C@H]2CCCCC(=O)*)N1

Tested on: YqiA
Test: Fluorescence polarization assay, YqiA
Format: binding, E. coli
Details: 100 nM DyLight 549-labeled LfcinB; protein 0.025-0.4 µM; data not shown
Text: FP assays, investigations of the binding between two molecules in a homogeneous aqueous environment, were used to validate the identified 153 proteins. […] If a fluorophore only binds to a small molecule, such as peptide, the rotation of the complex is fast and the light emits in a different plane of polarization. Therefore, the degree of polarization is low. However, once a fluorophore binds to a large molecule, the bound complex is stimulated with polarized light. The light emits in the same polarized plane, and the complex is maintained in the same plane of polarization, causing an increase in the degree of polarization [22]–[24]. The amount of molecules binding to a fluorophore influences the degree of polarization. In this study, LfcinB was labeled with DyLight™ 549 as a reference value. Once the protein bound to LfcinB, like a fluorophore binds to a large molecule, a high degree of polarization is expected.
Before the assays, LfcinB was labeled with DyLight™ 549 and tested proteins were quantified with a Pierce® bicinchoninic acid (BCA™) protein assay (Thermo). To label the LfcinB, DyLight™ 549-NHS ester and LfcinB (68∶1, mole/mole) were mixed in PBS at room temperature for 1 h, a D-Salt™ polyacrylamide desalting column (Thermo) was used to remove excess dye and the labeling efficiency of the eluted solution was calculated. […]

Which “binding to YqiA” value does the source give for “Lactoferricin B (Biotin-FKCRRWQWRMKKLGAPSITCVRRAF; ends and bridges not checked) [LfcinB]” here?
The value was “confirmed to bind to LfcinB”.
